Results reported in patent publication US20140121240A1, “NOVEL PHARMACEUTICAL COMPOSITION” (MARUHO CO., LTD., priority 2011, published 2014).

Columns and labels:
[1] = tested on: oxazolone-induced scratching behavior; assay: Chronic oxazolone-induced dermatitis model: scratching behavior (Experiment 4); assay type: in vivo, mouse; conditions: for Counts of scratching (Mean ± standard error): Compound A 1%, Tacrolimus 0.1%, Dexamethasone 0.01% w/v in 0.25% oxazolone
Experimental: [Antipruritic Effect of Test Compound in Chronic Oxazolone-Induced Dermatitis Model]
A magnet for measurement was implanted into an instep part of right hindlimb of BALB/c male mouse (fed for one week from five-week old; Charles River Laboratories, Japan Inc.) under anesthesia, and on the same day, sensitization was carried out by topically administering 0.5% w/v solution (10 μL) of oxazolone in acetone respectively onto the both sides of right ear auricle of the animal (sensitization day). On each point of the 7th, 9th, 11th, 14th and 16th day reckoned from the day after the sensitization (1st day), each mouse was challenged by topical administration of a 10 μL solution of test compound [acetone (vehicle-treated group), 0.25% w/v solution of oxazolone in acetone (oxazolone-treated group), or a test compound solubilized in 0.25% w/v oxazolone solution in acetone (test compound-treated group)] onto the both sides of right ear auricle of the animal to produce inflammatory reactions. Immediately after the administration, scratching behavior (counts of scratching) was measured for two hours by MicroAct. Thickness of right ear auricle of each mouse was measured by a thickness gauge before and 24 hours after the topical administration of each test compound solution. The percentage described in the Table means “% w/v”.

[2] = tested on: pruritogen-induced scratching behavior; assay: Antipruritic effect on pruritogen-induced scratching model (Experiment 1); assay type: in vivo, mouse; conditions: for Counts of scratching (Mean): 3% w/v in acetone 50 μL topical 1 h before, ICR female mouse
Description: [Antipruritic Effect of Test Compound on Pruritogen-Induced Scratching Model]
For the purpose of measuring scratching behavior (counts of scratching), a cylindrical magnet (diameter: 1 mm, length: 3 mm) was implanted into instep of right hindlimb of each mouse (ICR female mouse, 6 weeks old; Charles River Laboratories, Japan Inc.) under anesthesia at least three days before testing, and hair on her right dorsal neck was removed by a shaver under anesthesia the day before testing. After topical administration of a solution of test compound in acetone (3% w/v solution of 1-[2-(4S)-4-hydroxy-1,2,3,4-tetrahydroquinolin-1-yl]-4-pyridyl]-2,3-bis(dihydroxymethyl)-6,7-dimethoxynaphthalene sesquihydrate, as hereinafter referred to as Compound A, in acetone; 50 μL) or a vehicle (acetone; 50 μL) to the right dorsal neck of the above-treated mouse, these mice were placed into a testing apparatus (MicroAct, Neuroscience Inc.). After one hour of the administration of the above-mentioned solution, to the right dorsal neck of each mouse was intradermally administered a solution (50 μL) of a pruritogen in saline [histamine: 300 nmol/50 μL, U-46619 (chemical name: 9,11-dideoxy-9α,11α-methanoepoxyprosta-5Z,13E-dien-1-oic acid, Cayman Chemical Company): 10 nmol/50 μL, Compound 48/80 (Sigma): 3 μg/50 μL, serotonin (Sigma): 100 nmol/50 μL, or Substance P (Peptide Institute Inc.): 300 nmol/50 μL] or saline. Immediately after the administration, scratching behavior (counts of scratching) was measured for 30 minutes by MicroAct.

PDE4 = PDE4 inhibitory activity measured by a conventional manner; assay type: biochemical
Experimental: (§1) Ratio of inhibition rate on scratching behavior of each test compound to that of Compound A was calculated as antipruritic activity (%). For reference, PDE4 inhibitory activity of each compound (IC50) which was measured by a conventional manner is also shown in such Table.

[3] = tested on: spontaneous locomotor activity; assay: Effect on spontaneous locomotor activity (Experiment 3 (2)); assay type: in vivo, mouse; conditions: for Spontaneous locomotor activity (Mean): measured from 1 h after administration
Experimental: (2) [Effect of Test Compound on Spontaneous Locomotor Activity] The same solution (50 μL) of test compound or a vehicle (50 μL) as described in the above-mentioned (1) was administered onto right dorsal neck of ICR female mice similarly pre-treated as described in Experiment 1. After one hour of the administration of the test compound solution or vehicle, these animals were placed into an apparatus for measuring spontaneous locomotor activity (SCANET, Melquest Ltd.), and their locomotor activity was measured for 30 minutes.

[4] = tested on: histamine-induced scratching behavior; assay: Antipruritic activity in histamine-induced scratching model, dose response (Experiment 3 (1)); assay type: in vivo, mouse
Experimental: (1) [Antipruritic Activity of Test Compound in Histamine-Induced Scratching Model]
After topical administration of a solution (50 μL) of test compound (0.3 to 3% w/v solution of Compound A in acetone, or 0.03 to 0.3% w/v solution of cipamfylline in acetone), or a vehicle (acetone; 50 μL) onto right dorsal neck of ICR female mice similarly pre-treated as described in Experiment 1, these animals were placed into a testing apparatus (MicroAct). After one hour of the administration of said test compound solution or vehicle, a solution (50 μL) of histamine in saline (300 nmol/50 μL) or saline (50 μL; control group) was intradermally administered to right dorsal neck of each mouse. Immediately after the administration, scratching behavior (counts of scratching) was measured for 30 minutes by the testing apparatus (MicroAct).

[5] = tested on: histamine-induced scratching behavior; assay: Antipruritic effect in histamine-induced scratching model (Experiment 2); assay type: in vivo, mouse
Experimental: [Antipruritic Effect of Test Compound in Histamine-Induced Scratching Model]
After topical administration of a 3% w/v solution of a test compound or a reference compound as described in the following Table 6 in acetone (50 μL) or a vehicle (acetone; 50 μL) onto right dorsal neck of ICR female mice similarly pre-treated as described in Experiment 1, these animals were placed into a testing apparatus (MicroAct). After one hour of the administration of said compound solution or vehicle, a solution (50 μL) of histamine in saline (300 nmol/50 μL) or saline (50 μL) was intradermally administered to right dorsal neck of each mouse. Immediately after the administration, scratching behavior (counts of scratching) was measured for 30 minutes by MicroAct.
Inhibition rate on scratching behavior of each test compound was evaluated in terms of the following formula based on the counts of scratching in the test group in which each test compound solution was administered followed by administration of a histamine solution in saline (counts of scratching in compound-treated group), and the counts of scratching in the test group in which a vehicle (acetone) was administered followed by administration of a histamine solution in saline (counts of scratching in vehicle-treated group).
as §1

IC50 (PDE4): 3 nM
Spontaneous locomotor activity (Mean) ([3]; 0.3% w/v in acetone 50 μL topical): 5814 counts/30 min.
Spontaneous locomotor activity (Mean) ([3]; 1% w/v in acetone 50 μL topical): 5779 counts/30 min.
Spontaneous locomotor activity (Mean) ([3]; 3% w/v in acetone 50 μL topical): 6260 counts/30 min.
Compound: COc1cc2cc(CO)c(CO)c(-c3ccnc(N4CC[C@H](O)c5ccccc54)c3)c2cc1OC [Compound A, 1-[2-(4S)-4-hydroxy-1,2,3,4-tetrahydroquinolin-1-yl]-4-pyridyl]-2,3-bis(dihydroxymethyl)-6,7-dimethoxynaphthalene sesquihydrate]
Counts of scratching (Mean ± standard error) ([1]; 7th day, BALB/c male mouse): 931 ± 135 (**) beats/2 hr.
Counts of scratching (Mean ± standard error) ([1]; 9th day): 664 ± 99 (**) beats/2 hr.
Counts of scratching (Mean ± standard error) ([1]; 11th day): 577 ± 77 (*) beats/2 hr.
Counts of scratching (Mean ± standard error) ([1]; 14th day): 863 ± 122 (**) beats/2 hr.
inhibitory effect on the counts of scratching (antipruritic effect), result in words ([1]; 16th day): inhibitory effect on the counts of scratching
Counts of scratching (Mean ± standard error) ([1]; 16th day): 959 ± 166 (*) beats/2 hr.
pruritogen-induced scratching behavior (counts of scratching), result in words ([2]; 3% w/v topical, all pruritogens of Tables 1 to 5): significantly inhibited
Counts of scratching (Mean) ([2]; pruritogen Compound 48/80 3 μg/50 μL intradermal, n = 15): 521 beats/30 min.
Counts of scratching (Mean) ([2]; pruritogen Substance P 300 nmol/50 μL intradermal, n = 15): 777 beats/30 min.
Counts of scratching (Mean) ([2]; pruritogen U-46619 10 nmol/50 μL intradermal, n = 15): 1069 beats/30 min.
Counts of scratching (Mean) ([2]; pruritogen histamine 300 nmol/50 μL intradermal, n = 11): 365 beats/30 min.
Counts of scratching (Mean) ([2]; pruritogen serotonin 100 nmol/50 μL intradermal, n = 10): 841 beats/30 min.
spontaneous locomotor activity lowering effect at a dose producing antipruritic effect, result in words ([3]; Compound A 3% w/v, cipamfylline 0.3% w/v): did not show spontaneous locomotor activity lowering effect
Counts of scratching (Mean) ([4]; 0.3% w/v in acetone 50 μL topical 1 h before histamine 300 nmol/50 μL): 634 beats/30 min.
Counts of scratching (Mean) ([4]; 1% w/v in acetone 50 μL topical 1 h before histamine 300 nmol/50 μL): 611 beats/30 min.
Counts of scratching (Mean) ([4]; 3% w/v in acetone 50 μL topical 1 h before histamine 300 nmol/50 μL): 314 beats/30 min.
Antipruritic activity (ratio of inhibition rate on scratching behavior to that of Compound A) ([5]; 3% w/v in acetone 50 μL topical 1 h before histamine 300 nmol/50 μL, ICR female mice, counts for 30 minutes): 100%
antipruritic effect in histamine-induced scratching model, result in words ([5]; 3% w/v topical, histamine 300 nmol/50 μL): remarkable antipruritic effect
